The record followed here is patent US20250270227A1, “CAMPTOTHECIN DERIVATIVE, AND PHARMACEUTICAL COMPOSITION AND USE THEREOF” (SIMCERE ZAIMING PHARMACEUTICAL CO., LTD., priority 2021, published 2025).

Read-outs that look alike come from different tables or passages of the source.

The nature of data set [1]: Metabolic stability in liver microsomes. In kind it is in vitro ADME, human. The conditions noted are these: for half-life at 1 μM: human, microsomes. How it is done:
(§1) The metabolic stability of the compounds of the present disclosure in liver microsomes was determined by the following experimental method.
(§2) • 1. Human liver microsomes (Corning 452117), Beagle dog liver microsomes (XENOTECH D1000), SD rat liver microsomes (XENOTECH R1000) and CD-1 mouse liver microsomes (XENOTECH M1000) • 2. Na2HPO4 (Tianjin Guangfu Fine Chemical Research Institute 20180130) • 3. KH2PO4 (Tianjin Guangfu Fine Chemical Research Institute 20180920) • 4. MgCl2 (Tianjin Guangfu Fine Chemical Research Institute 20191216) • 5. NADPH (Solarbio 1216C022) • 6. Positive control compound verapamil (Sigma MKBV4993V) • 7. AB Sciex API4000 liquid chromatography-mass spectrometry
(§3) • 1. Preparation of 100 mM phosphate buffered saline (PBS): 7.098 g of Na2HPO4 was weighed, 500 mL of pure water was added and subjected to ultrasonic dissolution to obtain solution A. 3.400 g of KH2PO4 was weighed, 250 mL of pure water was added and subjected to ultrasonic dissolution to obtain solution B. Solution A was placed on a stirrer and solution B was slowly added until the pH value reached 7.4 to prepare 100 mM PBS buffer. • 2. Preparation of reaction system
(§4) The reaction system was prepared according to the following table:
(§5) • 3. The reaction system was placed in a 37° C. water bath and pre-incubated for 10 min. 40 μL of 10 mM NADPH solution (NADPH was dissolved in 100 mM phosphate buffer) was added to the reaction system with the final concentration of NADPH being 1 mM. 40 μL of phosphate buffer was used instead of NADPH solution as negative control. The role of the negative control was to exclude the effect of the chemical stability of the compounds themselves. • 4. 4 μL of 100 μM compound of the present disclosure and the positive control compound verapamil were added to the reaction system to initiate the reaction, with the final concentration of the compound being 1 μM. • 5. After thorough mixing on a vortex oscillator, 50 μL of the incubated sample was taken out at 0.5 min, 15 min, 30 min, 45 min and 60 min, respectively, and the reaction was stopped with 200 μL of glacial acetonitrile containing internal standard. The sample was centrifuged at 3220 g for 45 min. […]
(§6) All the data was calculated by the Microsoft Excel software. The peak area was detected by extracting the ion chromatogram. The in vitro half-life (t1/2) of the compound was determined by performing linear fitting of the natural logarithm of elimination percent of the compound and time.
(§7) The in vitro half-life (t1/2) was calculated by means of the slope k: […]
(§8) The in vitro intrinsic clearance (unit: μL/min/mg protein) was calculated using the following equation: […]

A short description of data set [2]: Metabolic stability in liver microsomes. In kind it is in vitro ADME, mouse. The note with it: for half-life at 1 μM: CD-1, mouse, microsomes. The procedure:
as §1, §2, §3, §4, §5, §6, §7, §8
(In general: Liver microsomes are vesicles of endoplasmic reticulum, rich in cytochrome P450 enzymes.)

Data set [3] can be described thus: Plasma protein binding rate (equilibrium dialysis). In kind it is in vitro ADME, human. The conditions noted are these: pH 7.4. How it is done:
(§9) The protein binding rates of the compounds of the present disclosure in human and mouse plasma were determined by the following experimental method.
(§10) • 1. Human plasma (BioIVT), CD-1 mouse plasma (BiolVT) • 2. Na2HPO4 (Sigma S5136-500G) • 3. NaH2PO4 (Sigma 53139-500G) • 4. NaCl (Sigma S5886-IKG) • 5. 96-well equilibrium dialysis plate (HTDialysis LLC, Gales Ferry, CT, HTD96B) and equilibrium dialysis membrane (MWCO 12-14K, 1101) • 6. Positive control compound warfarin • 7. ABI QTrap 5500 liquid chromatography-mass spectrometry
(§11) • 1. Preparation of a buffer with a concentration of 100 mM sodium phosphate and 150 mM NaCl: An alkaline solution with a concentration of 14.2 g/L Na2HPO4 and 8.77 g/L NaCl was prepared with ultrapure water, and an acidic solution with a concentration of 12.0 g/L NaH2PO4 and 8.77 g/L NaCl was prepared with ultrapure water. Then the alkaline solution was titrated to pH 7.4 with the acidic solution to prepare a buffer with a concentration of 100 mM sodium phosphate and 150 mM NaCl. • 2. Preparation of dialysis membrane: The dialysis membrane was soaked in ultrapure water for 60 min to separate the membrane into two pieces, then soaked in 20% ethanol for 20 min, and finally soaked in a buffer used for dialysis for 20 min. • 3. Preparation of plasma: The frozen plasma was quickly thawed at room temperature, and then centrifuged at 3220 g for 10 min at 4° C. to remove clots, and the supernatant was collected into a new centrifugal tube. The pH of the plasma was determined and recorded, and the plasma with pH of 7-8 was used. • 4. Preparation of compound-containing plasma samples: The 10 mM stock solution of the compound of the present invention or the positive control compound was diluted with DMSO to obtain a 200 μM working solution. To 597 μl of human or mouse plasma was added 3 μl of 200 μM compound working solution to obtain a plasma sample with a final concentration of 1 μM. • 5. […]
(§12) The peak areas of the compound on the buffer side and the plasma side were determined. […]
(In general: In equilibrium dialysis only unbound substance equilibrates across the membrane.)

Data set [4] is described as follows: Plasma protein binding rate (equilibrium dialysis). In kind it is in vitro ADME, mouse. The note with it: pH 7.4. How it is done:
as §9, §10, §11, §12

Setting [5] is: pH 7.4, human liver microsomes 0.5 mg/mL, 1 μM compound, 1 mM NADPH, 37° C., read-out: Stability in human liver microsomes t1/2.
The mark [6] stands for this setting: pH 7.4, mouse liver microsomes 0.5 mg/mL, 1 μM compound, 1 mM NADPH, 37° C., read-out: Stability in mouse liver microsomes t1/2.
[7] abbreviates: CD-1 mouse plasma, 1 μM, equilibrium dialysis 6 h, 37° C., read-out: % Mouse plasma protein binding rate (converted).

For the compound `CC[C@@]1(O)C(=O)OCc2c1cc1n(c2=O)Cc2c-1nc1cc3c(cc1c2CNC(=O)C(O)C1CC1)OCO3` (single isomer, unassigned) [Compound 14-P1], the half-life at 1 μM came out at 1.1 h in data set [1] (setting [5]) and 1.21 h in data set [2] (setting [6]). For the same compound, the fraction unbound at 6 h, 1 μM in data set [3] (human plasma, 1 μM, equilibrium dialysis 6 h, 37° C., read-out: % Human plasma protein binding rate (converted)) is 0.106; in data set [4] (setting [7]), 0.363.
`CC[C@@]1(O)C(=O)OCc2c1cc1n(c2=O)Cc2c-1nc1cc3c(cc1c2CNC(=O)C(O)C1CC1)OCO3` (single isomer, unassigned) [Compound 14-P2]: in data set [1] (human liver microsomes 0.5 mg/mL, 1 μM compound, 1 mM NADPH, 37° C.), the “Stability in human liver microsomes t1/2” value was 0.835 h. Moreover, in data set [2] (mouse liver microsomes 0.5 mg/mL, 1 μM compound, 1 mM NADPH, 37° C.), the “Stability in mouse liver microsomes t1/2” value turned out to be 1.08 h.
With `CC[C@@]1(O)C(=O)OCc2c1cc1n(c2=O)Cc2c-1nc1cc3c(c(F)c1c2CNC(=O)[C@@H](O)C1CC1)OCO3` (single isomer, unassigned) [Compound 37-P1], the half-life at 1 μM in data set [1] (pH 7.4) came out at 1.75 h; in data set [2] (pH 7.4), 2.23 h. The fraction unbound at 6 h, 1 μM in data set [3] (human, plasma) is 0.128; in data set [4] (CD-1, mouse, plasma), 0.327.
Take `[2H]C1([2H])Oc2cc3nc4c(c(CNC(=O)C(O)C5CC5)c3cc2O1)Cn1c-4cc2c(c1=O)COC(=O)[C@]2(O)CC` (stereo partly drawn) [Compound 39, 2-cyclopropyl-N-(((S)-7-ethyl-7-hydroxy-8,11-dioxo-7,8,11,13-tetrahydro-10H-[1,3]dioxolo[4,5-g]pyrano[3′,4′:6,7]indolizino[1,2-b]quinolin-14-yl-2,2-d2)methyl)-2-hydroxyacetamide]: the half-life at 1 μM in data set [1] (setting [5]) came to 4.01 h; in data set [2] (setting [6]), 4.47 h. For the same compound, the fraction unbound at 6 h, 1 μM was 0.081 in data set [3] (human, plasma) and 0.342 in data set [4] (setting [7]).
